# Data: patent US20240150286A1, “PEROXISOME PROLIFERATOR-ACTIVATED RECEPTOR GAMMA (PPARy) LIGANDS AND METHODS OF USE AS TREATMENTS FOR INSULIN RESISTANCE, OBESITY, FATTY LIVER DISEASE, AND TYPE 2 DIABETES” (The Board of Regents of the University of Oklahoma, priority 2022, published 2024)
# Legend:
# liver of DIO mice = assay: Liver steatosis in DIO mice (H&E histology, qRT-PCR); format: in vivo, mouse; conditions: vs vehicle
# Procedure: (§1) C57BL/6J male mice were obtained from Jackson laboratory (Bar Harbor, ME) and maintained on a 12 h light (6:00 AM to 6:00 PM)—12 h dark (6:00 PM to 6:00 AM) cycle at an ambient temperature of 22±1° C. All animals had access to diet and water ad libitum. All procedures involving animals were approved by the Institutional Animal Care and Use Committee of the University of Oklahoma Health Science Center. All experiments were performed with age-matched male mice. The mice were fed a high-fat diet (HFD) (60% kcal fat, Bio-Serv, NJ, USA) starting from the age of 6 weeks until study end. […] Food intake was determined manually by measuring the amount of input food subtracting the amount of the food remaining in the food hopper and the crumbs on the bedding of the cage each day for three days during the 4th week of the treatment. Packed cell volume (PCV) was measured with blood drawn from tail on a LW Scientific E8 centrifuge (LW Scientific, Lawrenceville, Georgia, USA) microhematocrit centrifuge at the end of study. For all other measurements, the blood was drawn at the time of euthanization.
# Liver, heart, bone, adipose tissues were dissected and immediately fixed in 4% paraformaldehyde (Sigma-Aldrich), paraffin embedded, and stained with hematoxylin and eosin. For Immunofluorescence staining, the eWAT and iWAT paraffin sections were incubated with primary antibody (rabbit polyclonal to F4/80 [1:500, Cat #: 70076], Cell Signaling Technology) overnight at 4° C. after deparaffinization. […]
# Total RNA (2 μg) was isolated from tissues or cells using TRIzol reagents (Life Technologies) and reverse transcribed using oligo d(T) primers (New England Biosystems) and SuperScript IV reverse transcription kit (Applied Biosystems). qPCR was performed in a CFX96 Touch Real-Time PCR detection system using SYBR Green mix (Applied Biosystems). […] Relative mRNA expression was determined by the ΔΔCt method normalized to TBP mRNA. […]
# human PPARγ2 = target: T1, human PPARγ2 (Homo sapiens, UniProt P37231); assay: PPARγ transactivation reporter assay (3×PPRE-luc) in HEK-293 cells; format: cell-based
# T1 construct: host or cells: HEK-293
# T1 sequence (P37231 1-505): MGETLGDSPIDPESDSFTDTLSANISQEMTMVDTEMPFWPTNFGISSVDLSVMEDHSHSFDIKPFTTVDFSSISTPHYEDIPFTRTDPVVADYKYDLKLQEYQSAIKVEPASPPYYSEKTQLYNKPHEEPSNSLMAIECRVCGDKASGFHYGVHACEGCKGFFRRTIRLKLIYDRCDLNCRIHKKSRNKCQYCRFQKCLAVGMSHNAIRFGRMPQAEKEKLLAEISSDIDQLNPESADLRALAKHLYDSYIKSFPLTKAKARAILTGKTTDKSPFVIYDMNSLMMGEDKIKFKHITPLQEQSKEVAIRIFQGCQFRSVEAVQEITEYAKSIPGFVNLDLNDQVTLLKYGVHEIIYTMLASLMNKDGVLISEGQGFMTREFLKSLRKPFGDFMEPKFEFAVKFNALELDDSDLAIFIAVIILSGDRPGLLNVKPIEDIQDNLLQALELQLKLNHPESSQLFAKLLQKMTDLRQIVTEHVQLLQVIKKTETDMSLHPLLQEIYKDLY
# Procedure: HEK-293 cells were seeded overnight, co-transfected with plasmids expressing human PPARγ2 and 3×PPRE-luc (both from Addgene) followed by incubation for 16 h, and then re-seeded in a 384-well plate and incubated for 24 h. Compounds were added and then incubated another 24 h. Luciferase activity was analyzed in each well using Bright-Glo Luciferase kit (Promega).
# [1] = tested on: PPARγ S273 phosphorylation; assay: PPARγ S273 phosphorylation and phosphorylation-dependent genes in 3T3-L1 differentiated adipocytes; format: cell-based, mouse
# Procedure: (§2) Total RNA (2 μg) was isolated from tissues or cells using TRIzol reagents (Life Technologies) and reverse transcribed using oligo d(T) primers (New England Biosystems) and SuperScript IV reverse transcription kit (Applied Biosystems). qPCR was performed in a CFX96 Touch Real-Time PCR detection system using SYBR Green mix (Applied Biosystems). The amplification program was as follows: initial denaturation at 95° C. for 15 min, followed by 40 cycles of 95° C. for 15 s, 60° C. for 1 min, and 40° C. for 30 s. Relative mRNA expression was determined by the ΔΔCt method normalized to TBP mRNA.
# [2] = tested on: adipose tissues (iWAT, eWAT, BAT) of DIO mice; assay: Adipose tissue analyses in DIO mice (pS273 Western, qRT-PCR, UCP1, histology, CLS); format: in vivo, mouse
# Procedure: as §1
# Liver, heart, bone, adipose tissues were dissected and immediately fixed in 4% paraformaldehyde (Sigma-Aldrich), paraffin embedded, and stained with hematoxylin and eosin. For Immunofluorescence staining, the eWAT and iWAT paraffin sections were incubated with primary antibody (rabbit polyclonal to F4/80 [1:500, Cat #: 70076], Cell Signaling Technology) overnight at 4° C. after deparaffinization. The slides were washed thrice with PBS with 0.2% Triton and then incubated in secondary antibody, Alexa 488 anti-rabbit (1:500, Jackson ImmunoResearch, PA) for 1.5 h at room temperature. Tissue sections were imaged on the Olympus Fluoview 1000 laser-scanning confocal microscope (Center Valley, PA).
# as §2, with “mRNA. The sequences of primers used in this study were shown in Table 1 in U.S. Provisional Application Ser. No. 63/419,049, the entirety of which is incorporated herein by reference.” for “mRNA.”
# Proteins were extracted with RIPA buffer containing protease and phosphatase inhibitors (Thermo) and then centrifuged for 10 min at 10,000 g. A 30 μg sample of protein was separated on a 10% SDS polyacrylamide gel and transferred to polyvinylidene-fluoride membrane for 1 h at 4° C. at 40 V. The membrane was blocked in TBS (10 mm Tris-HCl, pH 7.4, 150 mm NaCl) containing 5% non-fat dry milk for 1 h at room temperature and was probed with primary antibodies followed by the appropriate HRP-conjugated secondary antibodies (Anti-rabbit IgG, #7074, or Anti-mouse IgG, #7076, 1:5000 Cell Signaling Technology). The primary antibodies used were: anti-Ser-273 PPARγ (bs-4888R, Bioss Antibodies), anti-PPARγ antibody (sc-271392, Santa Cruz Biotechnology), anti-UCP1 (14670S, Cell Signaling Technology, Beverly, MA, USA).
# [3] = SVF of inguinal and epididymal adipose tissues, DIO mice
# [4] = eWAT of DIO mice, 15 mg/kg i.p. daily 4 weeks
compound,measurement,setting,value
"Cc1c(C)n(Cc2ccc(-c3ccccc3C(=O)O)cc2)c2ccc(C(=O)NCc3cccc(O)c3)cc12 [WO95E, 4′-((5-((3-hydroxybenzyl)carbamoyl)-2,3-dimethyl-1H-indol-1-yl)methyl)-[1,1′-biphenyl]-2-carboxylic acid]",number of lipid droplets in the liver,liver of DIO mice; H&E,markedly reduced
same,expression levels of PEPCK and G6PC in liver,liver of DIO mice,significantly decreased
same,"lipogenic genes FASN, SCD-1, ACC in liver",liver of DIO mice,down-regulated
same,PPARγ transactivation reporter activation (in words),"human PPARγ2; HEK293, PPARγ2 + 3×PPRE-luc",increased the reporter activity only weakly
same,3×PPRE-luc reporter activity as % of potency of Rosi,"human PPARγ2; HEK293, PPARγ2 + 3×PPRE-luc, relative to Rosi",~15%
same,3×PPRE-luc reporter activity as % of potency of UHC1,"human PPARγ2; HEK293, PPARγ2 + 3×PPRE-luc, relative to UHC1",~33%
same,3×PPRE reporter activation with GW9662 co-treatment,"human PPARγ2; compound 10 μM, GW9662 5 μM, HEK293",retained its moderate ability to activate the reporter
same,"mRNA levels of PPARγ phosphorylation-dependent genes (adiponectin, cycp2f2, Ddx-17, Rarres2, Selenbp1)","[1]; 3T3-L1, 10 μM, qRT-PCR",upregulation
same,S273 phosphorylation of PPARγ,"[1]; 3T3-L1 differentiated adipocytes, TNFα 10 ng/ml 1 h, compounds at 10 μM, Western blot",significantly inhibited
same,PPARγ S273 phosphorylation in iWAT,"[2]; DIO mice, 15 mg/kg i.p. daily 4 weeks, Western blot",markedly inhibited
same,"mRNA levels of browning/thermogenic genes (Prdm16, Cidea, Ppara, CPT1a, UCP1, Cox5b, PGC1α) in iWAT","[2]; DIO mice, 15 mg/kg i.p. daily 4 weeks, vs vehicle",significantly increased
same,adipocyte size in eWAT and iWAT,"[2]; DIO mice, H&E sections, vs vehicle",significantly smaller
same,UCP1 protein in iWAT and eWAT,"[2]; DIO mice, Western blotting",dramatic induction
same,UCP1 protein in BAT,"[2]; DIO mice, data not shown",an increase
same,mRNA levels of thermogenic genes in BAT,"[2]; DIO mice, data not shown",increased mRNA expression levels of most of these genes
same,areas of crown-like structures (CLS) in iWAT and eWAT,"[2]; DIO mice, vs vehicle",dramatically reduced
same,"mRNA levels of M2 macrophage markers (IL4, IL10, Mg1I)",[2]; [3],up-regulated or unchanged
same,"mRNA levels of pan-macrophage markers (CD68, F4/80)",[2]; [3],significantly decreased
same,genes involved in lipogenesis or adipogenesis,[2]; [4],inhibited
same,"mRNA levels of S273 phosphorylation-repressed genes (Adiponectin, Adipsin, selenbp1, Car3, Ddx-17, Acyl, Rarres2, Cidec)",[2]; [4],up-regulated
same,"mRNA levels of proinflammatory M1 mediators (TNFα, IL1b, IL-6, mcp-1)","[2]; iWAT and eWAT, DIO mice",down-regulated
